Measurements reported in patent publication US7173025B1, “Aminoheterocyclic derivatives as antithrombotic or anticoagulant agents” (Zeneca Limited, priority 1996, dated 2007).
Counter-ions that a name gives are not always drawn.

Biological target: human Factor Xa (Homo sapiens, UniProt P00742)
Assay: Measurement of Factor Xa Inhibition (chromogenic substrate S-2765)
Type: biochemical
Conditions: test a); read-out: IC50 against Factor Xa
Procedure: a) Measurement of Factor Xa Inhibition
An in vitro assay system was carried out based on the method of Kettner et al., J. Biol. Chem., 1990, 265, 18289-18297, whereby various concentrations of a test compound were dissolved in DMSO and diluted in a pH7.5 buffer containing 0.5% of a polyethylene glycol (PEG 6000) and incubated at 37° C. with human Factor Xa (0.001 Units/ml, 0.3 ml) for 15 minutes. The chromogenic substrate S-2765 (KabiVitum AB, 20 μM) was added and the mixture was incubated at 37° C. for 20 minutes whilst the absorbance at 405 nm was measured. The maximum reaction velocity (Vmax) was determined and compared with that of a control sample containing no test compound. Inhibitor potency was expressed as an IC50 value.

human Factor Xa, sequence (P00742 235-488 limits assumed): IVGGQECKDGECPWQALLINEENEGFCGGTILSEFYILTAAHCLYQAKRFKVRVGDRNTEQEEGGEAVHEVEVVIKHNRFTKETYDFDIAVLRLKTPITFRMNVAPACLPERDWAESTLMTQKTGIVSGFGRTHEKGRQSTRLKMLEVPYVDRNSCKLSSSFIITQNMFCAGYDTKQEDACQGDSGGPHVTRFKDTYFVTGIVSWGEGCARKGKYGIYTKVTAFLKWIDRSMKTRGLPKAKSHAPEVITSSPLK
human Factor Xa, sequence (P00742 41-179 partner limits assumed): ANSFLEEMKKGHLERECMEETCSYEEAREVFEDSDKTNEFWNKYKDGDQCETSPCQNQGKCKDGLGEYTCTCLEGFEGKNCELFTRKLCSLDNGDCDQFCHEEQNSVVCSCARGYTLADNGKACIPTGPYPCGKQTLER

Question: Which IC50 does the source give for `O=C(c1ccc(S(=O)(=O)c2ccc3cc(Cl)ccc3c2)cc1)N1CCN(c2ccncc2)CC1` [Example 1, 1-[4-(6-chloronaphth-2-ylsulphonyl)benzoyl]-4-(4-pyridyl)piperazine] here?
Answer: 13 nM

Biological target: human thrombin (Homo sapiens, UniProt P00734)
Assay: Measurement of Thrombin Inhibition (chromogenic substrate S-2238)
Type: biochemical
Conditions: test b); read-out: IC50 against thrombin
Procedure: b) Measurement of Thrombin Inhibition
The procedure of method a) was repeated except that human thrombin (0.005 Units/ml) and the chromogenic substrate S-2238 (KabiVitum AB, 7 μM) were employed.

Question: Which IC50 does the source give for `O=C(c1ccc(S(=O)(=O)c2ccc3cc(Cl)ccc3c2)cc1)N1CCN(c2ccncc2)CC1` [Example 1, 1-[4-(6-chloronaphth-2-ylsulphonyl)benzoyl]-4-(4-pyridyl)piperazine] here?
Answer: > 40000 nM

System: blood plasma
Assay: Measurement of Anticoagulant Activity (in vitro prothrombin time test)
Parameters: species or system human, rat or rabbit
Conditions: test c)
Procedure: c) Measurement of Anticoagulant Activity
An in vitro assay whereby human, rat or rabbit venous blood was collected and added directly to a sodium citrate solution (3.2 g/100 ml, 9 parts blood to 1 part citrate solution). Blood plasma was prepared by centrifugation (1000 g, 15 minutes) and stored at 2-4° C. Conventional prothrombin time (PT) tests were carried out in the presence of various concentrations of a test compound and the concentration of test compound required to double the clotting time, hereinafter referred to as CT2, was determined. In the PT test, the test compound and blood plasma were incubated at 37° C. for 10 minutes. Tissue thromboplastin with calcium (Sigma Limited, Poole, England) was added and fibrin formation and the time required for a clot to form were determined.

Question: For `O=C(c1ccc(S(=O)(=O)c2ccc3cc(Cl)ccc3c2)cc1)N1CCN(c2ccncc2)CC1` [Example 1, 1-[4-(6-chloronaphth-2-ylsulphonyl)benzoyl]-4-(4-pyridyl)piperazine], which “CT2 (PT), concentration of test compound required to double the clotting time” value is on record?
Answer: 5 µM

System: not given
Assay: not given
Conditions: not given

Question: For `O=S(=O)(Nc1ccc(OCC2CCN(c3ccncc3)CC2)cc1)c1ccc(-c2ccc(Br)cc2)cc1` (as salt: hydrochloride) [Example 11, 4′-bromo-N-{4-[1-(4-pyridyl)piperidin-4-ylmethoxy]phenyl}-4-biphenylylsulphonamide], which melting point is on record?
Answer: 293 to 295 °C

Question: Which melting point does the source give for `O=S(=O)(c1ccc(S(=O)(=O)N2CCN(c3ccncc3)CC2)cc1)c1ccc2cc(Br)ccc2c1` (as salt: trifluoroacetate) [Example 25, 4-[4-(6-bromonaphth-2-ylsulphonyl)phenylsulphonyl]-1-(4-pyridyl)piperazine] here?
Answer: 236 to 238 °C

Question: With `O=S(=O)(/C=C/c1ccc(Cl)cc1)Nc1ccc(OCC2CCN(c3ccncc3)CC2)cc1` (as salt: hydrochloride) [Example 13, 4-chloro-N-{4-[1-(4-pyridyl)piperidin-4-ylmethoxy]phenyl}-(E)-styrylsulphonamide] as the molecule, how does the melting point read?
Answer: 220 to 223 °C

Question: With `Cc1ccc(S(=O)(=O)N(c2ccc(OC3CCN(c4ccncc4)CC3)cc2)S(=O)(=O)c2ccc(C)cc2)cc1` [Example 8, N-{4-[1-(4-pyridyl)piperidin-4-yloxy]phenyl}-N-(4-tolylsulphonyl)-4-toluenesulphonamide] as the molecule, how does the melting point read?
Answer: 196 to 198 °C

Question: With `O=S(=O)(Nc1ccc(OC2CCN(c3ccncc3)CC2)cc1)c1ccc(-c2ccc(Br)cc2)cc1` (as salt: hydrochloride) [Example 4, 4′-bromo-N-{4-[1-(4-pyridyl)piperidin-4-yloxy]phenyl}-4-biphenylylsulphonamide] as the molecule, how does the melting point read?
Answer: 302 to 304 °C

Question: Which melting point does the source give for `O=S(=O)(c1ccc2cc(Br)ccc2c1)N(c1ccc(OCC2CCN(c3ccncc3)CC2)cc1)S(=O)(=O)c1ccc2cc(Br)ccc2c1` [Example 15, 6-bromo-N-(6-bromonaphth-2-ylsulphonyl)-N-{4-[1-(4-pyridyl)piperidin-4-ylmethoxy]phenyl}-2-naphthalenesulphonamide] here?
Answer: 246 to 252 °C

Question: Which melting point does the source give for `O=S(=O)(/C=C/c1ccc(Cl)cc1)Nc1cccc(OC2CCN(c3ccncc3)CC2)c1` (as salt: hydrochloride) [Example 21, 4-chloro-N -{3-[1-(4-pyridyl)piperidin-4-yloxy]phenyl}-(E)-styrylsulphonamide] here?
Answer: 147 to 150 °C

Question: For `O=C(c1ccc(Sc2ccc3cc(Br)ccc3c2)cc1)N1CCN(c2ccncc2)CC1` [Example 27, 1-[4-(6-bromonaphth-2-ylthio)benzoyl]-4-(4-pyridyl)piperazine], which melting point is on record?
Answer: 210 to 213 °C

Question: With `O=S(=O)(Nc1ccccc1OCC1CCN(c2ccncc2)CC1)c1ccc2cc(Br)ccc2c1` [Example 20, 6-bromo-N-{2-[1-(4-pyridyl)piperidin-4-ylmethoxy]phenyl}-2-naphthalenesulphonamide] as the molecule, how does the melting point read?
Answer: 197 to 200 °C

Question: With `O=C(c1ccc(S(=O)(=O)c2ccc3cc(Cl)ccc3c2)cc1)N1CCN(c2ccncc2)CC1` [Example 1, 1-[4-(6-chloronaphth-2-ylsulphonyl)benzoyl]-4-(4-pyridyl)piperazine] as the molecule, how does the melting point read?
Answer: 267 to 269 °C

Question: Which melting point does the source give for `O=S(=O)(Nc1cccc(OC2CCN(c3ccncc3)CC2)c1)c1ccc2cc(Br)ccc2c1` (as salt: hydrochloride) [Example 16, 6-bromo-N-{3-[1-(4-pyridyl)piperidin-4-yloxy]phenyl}-2-naphthalenesulphonamide] here?
Answer: 298 to 300 °C

Question: With `O=S(=O)(c1ccc(-c2ccc(Br)cc2)cc1)N(c1ccc(OCC2CCN(c3ccncc3)CC2)cc1)S(=O)(=O)c1ccc(-c2ccc(Br)cc2)cc1` [Example 14, 4′-bromo-N-(4′-bromo-4-biphenylylsulphonyl)-N-{4-[1-(4-pyridyl)piperidin-4-ylmethoxy]phenyl}-4-biphenylylsulphonamide] as the molecule, how does the melting point read?
Answer: 136 to 140 °C

Question: Which melting point does the source give for `Cc1ccc(S(=O)(=O)Nc2ccc(OC3CCN(c4ccncc4)CC3)cc2)cc1` (as salt: hydrochloride) [Example 7, N-{4-[1-(4-pyridyl)piperidin-4-yloxy]phenyl}-4-toluenesulphonamide] here?
Answer: 270 to 272 °C

Question: With `O=S(=O)(Nc1ccc(OCC2CCN(c3ccncc3)CC2)cc1)c1ccc2cc(Br)ccc2c1` (as salt: hydrochloride) [Example 12, 6-bromo-N-{4-[1-(4-pyridyl)piperidin-4-ylmethoxy]-phenyl}-2-naphthalenesulphonamide] as the molecule, how does the melting point read?
Answer: 167 to 169 °C

Question: Which melting point does the source give for `O=S(=O)(c1ccc(OC2CCN(c3ccncc3)CC2)cc1)c1ccc2cc(Br)ccc2c1` [Example 22, 4-[4-(6-bromonaphth-2-ylsulphonyl)phenoxy]-1-(4-pyridyl)piperidine] here?
Answer: 180 to 183 °C
